Holding throughout (test): inhibition of tumour cell growth, NCI panel, 48 h
In experiment [1] the test system is 786-0 renal.
The test system of experiment [2] is BT-549 breast.
The subject of experiment [3] is DU-145 prostate.
For experiment [4], the system named is HCC-2998 colon.
Experiment [5] has as its system HS 578T breast.
In experiment [6] the test system is MCF7 breast.
The subject of experiment [7] is MDA-MB-231 breast.
Experiment [8] has as its system MDA-N.
Experiment [9] relates to NCI-H226 lung.
The subject of experiment [10] is SF-295 CNS.
For experiment [11], the system named is SK-MEL-5 melanoma.
Experiment [12] has as its system SN12C renal.
Experiment [13] concerns SNB-19 CNS.
The test system of experiment [14] is SW-620 colon.
Experiment [15] concerns CCRF-CEM leukemia.

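Step 1: Grow cells in 96-well plates. Step 2: Expose to compound for 48 hours at 5 concentrations. Step 3: Interpolate endpoints linearly; if unreached, use highest concentration. TGI: concentration producing complete growth inhibition.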 Where a SMILES comes first, the peptide text is derived from it. [ ]: non-standard residue; d: D form. The star is where a group is joined. Boc = CC(C)(C)OC(=O)*; Lac = C[CH](O)C(=O)O; OBn = c1ccc(CO*)cc1 Where only a bound is given, the exact number is not on record here.

Take `O=[N+]([O-])C(=C(Cl)Cl)C(Cl)=C(Cl)Cl`: the TGI in experiment [1] turned out to be 0.648 µM; in experiment [2], 0.528 µM; in experiment [3], 24 µM; in experiment [4], 5.43 µM; in experiment [5], 3.29 µM; in experiment [6], 0.992 µM. Also, the TGI came to 2.11 µM in experiment [7]; 1.24 µM in [8]; 3.53 µM in experiment [9]; 9.54 µM in experiment [10]; 1.83 µM in experiment [11]; 2.22 µM in experiment [12]. Besides, the values for the TGI in [13] and in [14] were 11.2 µM and 0.157 µM, respectively.

On to `C[N+](C)(CCCn1ccnc1[N+](=O)[O-])CCCn1ccnc1[N+](=O)[O-]`, for which the TGI in experiment [1], in [2], in experiment [15], in experiment [3], in [5] and in experiment [6] was over 100 µM each time. Besides, the TGI in experiment [7], in experiment [8], in [9], in experiment [10], in experiment [11] and in experiment [12] was over 100 µM each time. For the same compound, in experiment [14], the TGI was over 100 µM.

Take `CC(OC(=O)C(Cc1ccccc1)NC(=O)C(Cc1ccccc1)NC(=O)OC(C)(C)C)C(=O)OCc1ccccc1` (stereo not drawn) (Boc-Phe-Phe-[Lac]-OBn; configuration not given here): the TGI is over 100 µM in experiment [2]; over 100 µM in experiment [15]; over 100 µM in experiment [3]; over 100 µM in [4]; over 100 µM in [5]; 54.6 µM in [6]. Also, the TGI in [7], in experiment [8], in experiment [9], in [10], in experiment [11] and in [12] was over 100 µM in each case. The compound further gave a TGI in [13] of over 100 µM.

In the case of `COC(=O)NC(Nc1ccccn1)(C(F)(F)F)C(F)(F)F`, the TGI in experiment [1], in experiment [2], in [15], in experiment [3], in [4] and in experiment [5] was over 100 µM in each case. The TGI in experiment [6], in experiment [7], in [8], in [9], in [11] and in [13] was over 100 µM each time. In [14], this compound gave a TGI of over 100 µM.

On to `S=C(N1CCN(c2ccc(Cl)c(Cl)c2)CC1)N1CCN(c2ccc(Cl)c(Cl)c2)CC1`, for which the TGI came to 22.7 µM in [1]; 30.4 µM in experiment [2]; 9.44 µM in [15]; 28.1 µM in experiment [3]; 26.6 µM in experiment [4]; 26 µM in experiment [5]. Moreover, the TGI is 24 µM in experiment [6]; 21.2 µM in experiment [7]; 23.8 µM in [8]; 23.8 µM in [9]; 22.2 µM in experiment [10]; 28.4 µM in experiment [11]. The TGI in experiment [13] turned out to be 26.7 µM; in experiment [14] it was 33.8 µM.

Consider `Nc1ncc(Br)c(NCC2(CO)CCC2)n1`, for which the TGI in [1], in experiment [2], in experiment [15], in [3], in [4] and in experiment [5] was over 100 µM in each case. Besides, the TGI in experiment [6], in experiment [7], in experiment [8], in [9], in [10] and in [11] was over 100 µM each time. In addition, the TGI in experiment [12] and in experiment [14] was over 100 µM each time.

`O=C(NC(=S)Nc1ccc(Br)cc1)c1ccc2c(c1)Sc1ccccc1S2`: the TGI in [1] is 30.6 µM; in experiment [2], 60.6 µM; in experiment [15], 54.1 µM; in [3] it was 32.4 µM; in [5], 59.7 µM; in [6], over 100 µM. Moreover, the TGI is 38.2 µM in experiment [7]; over 100 µM in experiment [8]; 47.7 µM in experiment [9]; 38.6 µM in experiment [10]; over 100 µM in experiment [11]; 38.4 µM in [12]. In addition, the TGI in experiment [13] was 54.4 µM; in experiment [14], over 100 µM.

As for `COc1cc(NC(C)c2ccc3c(c2)OCCO3)cc(OC)c1OC` (configuration not stated), the TGI in [1] is over 100 µM; in experiment [2], over 100 µM; in [3], over 100 µM; in experiment [4], over 100 µM; in experiment [5] it was 52.1 µM; in [6], over 100 µM. Besides, the TGI is over 100 µM in experiment [7]; 30.2 µM in experiment [8]; 75.6 µM in [9]; over 100 µM in experiment [10]; 76.3 µM in experiment [11]; over 100 µM in experiment [12]. Further, the TGI in experiment [13] and in [14] was over 100 µM throughout.

As to `Cc1ccc(N=N/C(=N/NC(=O)c2cc(Cl)ccc2O)c2ccc(N(CCC#N)CCC#N)cc2C)cc1`, the TGI in experiment [1] is over 100 µM; in [2] it was 88.7 µM; in experiment [15], over 100 µM; in [3] it was over 100 µM; in [4], 68.5 µM; in experiment [5], 46.4 µM. The TGI in experiment [6] is over 100 µM; in [7], over 100 µM; in experiment [8], over 100 µM; in [9] it was 63.7 µM; in [10] it was 83.3 µM; in experiment [11] it was 36.4 µM. For the same compound, the values for the TGI in [12] and in experiment [13] were 85.6 µM and over 100 µM, respectively.

As for `NC(=O)c1ccc(C(=O)Nc2ccc([As](=O)(O)O)cc2)cc1`, the TGI in [1], in [2], in experiment [15], in experiment [3], in experiment [5] and in experiment [6] was over 100 µM throughout. The TGI in experiment [7], in [8], in experiment [9], in experiment [10], in experiment [11] and in experiment [12] was over 100 µM each time. For the same compound, the TGI in experiment [13] and in experiment [14] was over 100 µM throughout.

(Values after PubChem BioAssay (NCI).)
